Measurements published in the NIST ThermoML archive (doi:10.1021/je020153x).
± gives the expanded uncertainty stated by the source.

Test: mn = molality of the nth substance listed, in mol/kg
Conditions: 101.3 kPa, Liquid; for viscosity: Capillary tube (Ostwald / Ubbelohde) method; for mass density: Vibrating tube method

O=C[C@H](O)[C@@H](O)[C@H](O)[C@H](O)CO [D-glucose] + O
Conditions | mass density, 293.15 K [kg/m3] | mass density, 303.15 K [kg/m3] | mass density, 313.15 K [kg/m3] | viscosity, 293.15 K [mPa·s] | viscosity, 303.15 K [mPa·s] | viscosity, 313.15 K [mPa·s]
m1 = 0.5 | 1030.7 ± 0.2 | 1027.7 ± 0.2 | 1024 ± 0.2 | 1.256 ± 0.011 | 0.988 ± 0.009 | 0.801 ± 0.007
m1 = 1 | 1059.7 ± 0.2 | 1056.4 ± 0.2 | 1052.4 ± 0.2 | 1.587 ± 0.014 | 1.231 ± 0.011 | 0.985 ± 0.009
m1 = 1.5 | 1085.4 ± 0.3 | 1081.8 ± 0.3 | 1077.6 ± 0.2 | 1.993 ± 0.018 | 1.523 ± 0.014 | 1.205 ± 0.011
m1 = 2 | 1108.8 ± 0.3 | 1105 ± 0.3 | 1100.6 ± 0.3 | 2.512 ± 0.023 | 1.89 ± 0.018 | 1.475 ± 0.014
m1 = 2.5 | 1129.8 ± 0.3 | 1125.7 ± 0.3 | 1121.2 ± 0.3 | 3.159 ± 0.029 | 2.341 ± 0.022 | 1.804 ± 0.017
m1 = 3 | 1148.8 ± 0.3 | 1144.6 ± 0.3 | 1139.9 ± 0.3 | 3.947 ± 0.037 | 2.873 ± 0.028 | 2.182 ± 0.021
m1 = 3.5 | 1166.3 ± 0.3 | 1161.9 ± 0.3 | 1157.1 ± 0.3 | 4.96 ± 0.046 | 3.553 ± 0.035 | 2.66 ± 0.026
m1 = 4 | 1182.2 ± 0.3 | 1177.7 ± 0.3 | 1172.7 ± 0.3 | 6.131 ± 0.056 | 4.309 ± 0.043 | 3.175 ± 0.033

[Cl-].[Na+] [sodium chloride] + O
Conditions | mass density, 293.15 K [kg/m3] | mass density, 303.15 K [kg/m3] | mass density, 313.15 K [kg/m3] | viscosity, 293.15 K [mPa·s] | viscosity, 303.15 K [mPa·s] | viscosity, 313.15 K [mPa·s]
m1 = 0.5 | 1018.6 ± 0.2 | 1015.7 ± 0.2 | 1011.9 ± 0.2 | 1.041 ± 0.009 | 0.835 ± 0.008 | 0.688 ± 0.007
m1 = 1 | 1037.8 ± 0.2 | 1034.4 ± 0.2 | 1030.4 ± 0.2 | 1.087 ± 0.01 | 0.873 ± 0.008 | 0.722 ± 0.007
m1 = 1.5 | 1056.3 ± 0.2 | 1052.6 ± 0.2 | 1048.4 ± 0.2 | 1.138 ± 0.01 | 0.918 ± 0.008 | 0.76 ± 0.007
m1 = 2 | 1074.1 ± 0.2 | 1070.1 ± 0.2 | 1065.7 ± 0.2 | 1.196 ± 0.01 | 0.966 ± 0.009 | 0.802 ± 0.007
m1 = 2.5 | 1091.4 ± 0.2 | 1087.2 ± 0.2 | 1082.5 ± 0.2 | 1.264 ± 0.011 | 1.021 ± 0.009 | 0.848 ± 0.008
m1 = 3 | 1107.8 ± 0.2 | 1103.4 ± 0.2 | 1098.6 ± 0.2 | 1.333 ± 0.012 | 1.077 ± 0.01 | 0.895 ± 0.008
m1 = 3.5 | 1123.9 ± 0.3 | 1119.2 ± 0.3 | 1114.3 ± 0.3 | 1.411 ± 0.012 | 1.14 ± 0.01 | 0.945 ± 0.009
m1 = 4 | 1139.2 ± 0.3 | 1134.4 ± 0.3 | 1129.3 ± 0.3 | 1.499 ± 0.013 | 1.208 ± 0.011 | 1 ± 0.009

O [water] + O=C[C@H](O)[C@@H](O)[C@H](O)[C@H](O)CO
m2 = 0
Conditions | viscosity [mPa·s]
293.15 K | 1.002 ± 0.009
303.15 K | 0.797 ± 0.007
313.15 K | 0.653 ± 0.006

O [water] + [Cl-].[Na+]
m2 = 0
Conditions | viscosity [mPa·s]
293.15 K | 1.002 ± 0.009
303.15 K | 0.797 ± 0.007
313.15 K | 0.653 ± 0.006
